Experimental findings from patent US20100204286A1, “METHOD FOR REDUCING GASTROINTESTINAL ADVERSE EFFECTS OF CYTOTOXIC AGENTS” (priority 2009, published 2010) are described below.

The test system of series [1] is LPS-induced NF-κB-dependent transcription. Kind of series: LPS-induced NF-κB-dependent transcription in extracted organs of NF-κB::Luc mice (luciferase assay). Format: in vivo. The conditions noted are these: 30 mg/kg; 0.5 mg/kg LPS; versus LPS alone. The text has this: For luciferase assays, organs were extracted and snap frozen in liquid nitrogen. All tissue samples were placed in lysis buffer with inhibitors (Passive Lysis Buffer (Promega) and Complete Mini Protease Inhibitor Cocktail (Roche, Indianapolis, Ind.)), and were homogenized using a tissue homogenizer (Handishear, Hand-held homogenizer, VirTis, Gardiner, N.Y.). Tissue homogenates were centrifuged and clarified lysates were used for luminometer assays and western blots. For the luminometer assays, Luciferase Assay Substrate (Luciferase Assay System, Promega) was prepared as indicated by the manufacturer and placed in disposable cuvettes. […] Background luminescence readings were obtained and the background readings were subtracted from the luminescent data. Protein concentrations were determined using the BCA Protein Assay Kit (Pierce, Rockford, Ill.) following the manufacturer's protocols and analyzed using a VERSAmax tunable microplate reader and associated Softmax Pro version 3.1.2 software (Molecular Devices, Sunnyvale Calif.). The luminescence for each of the protein lysates was calculated as arbitrary units of light per microgram of protein. […]
ORE1001 was further tested for in vivo anti-inflammatory activity by examining its effects on bacterial LPS-induced NF-κB-dependent transcription, in NF-κB::Luc mice. […] Luciferase signal was quantitated from several regions of interest. […]

In series [2] the test system is NF-κB-dependent transcription. Kind of series: In vivo basal NF-κB-dependent transcription in NF-κB::Luc reporter mice (abdominal imaging). The following applies: 4 hours. The text has this:
ORE1001 was further tested for in vivo anti-inflammatory activity by examining its effects on basal levels of NF-κB-dependent transcription in mice engineered in the germline with a construct containing an NF-κB enhancer linked to a luciferase gene (i.e., NF-κB::Luc mice), such that this NF-κB reporter construct is present in all cells of the mice.
More particularly, transgenic NF-κB::Luc mice were generated using three NF-κB response elements from the Igic light chain promoter fused to a firefly luciferase gene as described by Carlsen et al. (2002) J. Immunol. 168:1441-1446. Pronuclear microinjection of purified construct DNA was used to generate transgenic founders in the C57BL/6 XCBA/J background. Founders were subsequently back crossed to the C57BL/6 albino background. […] Signal data were also quantitated and archived using the Living Image® software. Photons of light were quantitated using an oval region of interest (ROI) of varying sizes depending on the procedure, as described further below.
To test for in vivo effects of ORE1001 on basal levels of NF-κB-dependent transcription, male NF-κB::Luc mice were subjected to quantitative in vivo imaging of the abdominal area (using a fixed ROI of 2.76×3.7 cm) as described above, immediately before, and at 2, […]

For series [3], the system named is activator protein-1 (AP-1). In words: Basal in vivo reporter luciferase expression in AP-1::Luc mice. The following applies: data not shown.
The subject of series [4] is NF-κB-dependent transcription. In words: TNFα-induced activation of NF-κB in recombinant HeLa reporter cells (luciferase). The format is cell-based. The text has this: To test the ACE2 inhibitor ORE1001 for anti-inflammatory activity relevant to IBD, effects of the compound on activation of NF-κB-dependent transcription by TNFα were examined in recombinant reporter cells containing a construct with a luciferase reporter gene under control of NF-κB-dependent regulatory sequences, thereby allowing detection of NF-κB-dependent transcription by measuring reporter enzyme using a conventional luciferase activity assay based on detection of generated light.
In particular, HeLa cells (American Type Culture Collection) were grown in Dulbecco's modified Eagles medium (DMEM) supplemented with 10% fetal calf serum and transiently transfected with an NF-κB—luc construct (Stratagene, Inc.), as follows (with all incubation steps at 37 C unless otherwise indicated). Cells were seeded and grown to about 70% confluency in a 10 cm cell culture dish. Plasmid DNA (10 μg) was added to 1 ml serum free DMEM media in a tube. Fugene 6 transfection reagent (30 μl) (Roche) was then pipetted slowly into the tube and the contents were gently mixed by inversion. The mixture was incubated at room temperature for 15 minutes and then added dropwise to cells in one 10 cm dish. Following incubation for 24 hours, cells were detached from the plate with Trypsin-EDTA (Gibco-BRL), transferred to wells in a clear-bottom white 96-well test plate (Fisher) with 100 μl per well serum free DMEM, at a density of 3×10^4 cells per well, and allowed to attach overnight. Compound (ORE1001) was then added to wells at a concentration of approximately 0, 0.008, 0.04, 0.2, 1.0 or 5.0 μM, followed immediately by addition of TNFα (R&D) to a final concentration of 20 ng/ml. After incubation for 6 hours, 100 μl of Bright-Glo Luciferase buffer (Promega, Cat#E2610) was added, and the plate was incubated at room temperature, with mild shaking, for 10 min. Bioluminescence was then measured using a Veritas luminometer (Turner BioSystems). Each plotted data point represents the average bioluminescence of 4 independent wells.

Series [5] has as its system radiation-induced proctitis. Kind of series: Rat model of radiation-induced proctitis (endoscopy, histopathology, body weight). The format is in vivo. The conditions noted are these: for proctitis severity (endoscopy, day 8): 17.5 Gy on day 0. The text has this: A rat model was used to determine whether ORE1001 can reduce severity of radiation-induced proctitis, as assessed by endoscopy, and can reduce histopathological indicators of radiation-induced proctitis. This is a validated model, as described for example in the publications cited individually below and incorporated herein by reference.
Female Lewis rats of body weight 175-200 g and 6-8 weeks old were randomized into 3 groups of 8 animals each, for induction of proctitis by radiation as described below. In addition, a group of 8 female Lewis rats of body weight 175-200 g and 6-8 weeks old were followed as untreated, non-irradiated controls. Animals were acclimated prior to study commencement. The study was performed in animal rooms provided with filtered air at a temperature of 70±5° F. (˜21±3° C.) and relative humidity of 50±20%, and a 12 h/12 h light/dark cycle. Animals were fed with LabDiet 5053 sterile irradiated rat chow. Water was provided ad libitum.
Proctitis was induced by a single 17.5 Gy dose of radiation at a rate of 1 Gy/minute administered to each animal on day 0. Lead shielding was used to cover the animal except for a 3×4 cm area of the lower pelvis, permitting exposure to radiation of an approximately 2 cm length of rectum and distal descending colon. Radiation was generated with a Kimtron 160 kV, 15 mA source at a focal distance of 30 cm, hardened with a 0.35 mm Cu filtration system. Prior to irradiation, animals were anesthetized with an intraperitoneal injection of ketamine (100 mg/kg) and xylazine (5 mg/kg). Animals were inclined in a slightly head-down position, to allow gravity to move non-target abdominal organs out of the radiation path as much as possible.
ORE1001 in a vehicle of 0.5% carboxymethylcellulose (CMC) in sterile water was administered per os at a daily dose of 600 mg/kg in 5 ml/kg vehicle from day 0 to day 7 (first group) or from day −2 to day 7 (second group). A third group received vehicle only, from day −2 to day 7.
All animals were weighed daily and examined for diarrhea and fecal blood. On day 8, all animals were examined by rodent endoscope under isoflurane anesthesia and were scored for severity of proctitis. Following endoscopy, animals were euthanized by CO2 inhalation and the descending colon and rectum to the anus were taken as a single tissue sample for histological examination. Histopathology was recorded by scoring inflammation, edema and necrosis.

The subject of series [6] is LPS-induced NF-κB signaling. Kind of series: In vivo LPS-induced NF-κB-dependent transcription in NF-κB::Luc mice (abdominal imaging). The text has this:
More particularly, transgenic NF-κB::Luc mice were generated using three NF-κB response elements from the Igic light chain promoter fused to a firefly luciferase gene as described by Carlsen et al. (2002) J. Immunol. 168:1441-1446. Pronuclear microinjection of purified construct DNA was used to generate transgenic founders in the C57BL/6 XCBA/J background. Founders were subsequently back crossed to the C57BL/6 albino background. All experimental protocols were approved by the Institutional Animal Care and Use Committee and conform to the ILAR guide for the care and used of laboratory animals. […] Signal data were also quantitated and archived using the Living Image® software. Photons of light were quantitated using an oval region of interest (ROI) of varying sizes depending on the procedure, as described further below.
ORE1001 was further tested for in vivo anti-inflammatory activity by examining its effects on bacterial LPS-induced NF-κB-dependent transcription, in NF-κB::Luc mice. […] Mice were subjected to quantitative abdominal imaging at 2, 4 and 6 h following LPS administration, as described above. […] Luciferase signal was quantitated from several regions of interest. […]
As shown by the quantitative imaging data in FIG. 4, LPS induced a strong NF-κB-dependent luciferase signal in control mice, indicating a strong NF-κB signaling response, as expected. […]

The mark [7] stands for this setting: 600 mg/kg per os daily, day 0 to day 7.
The mark [8] stands for this setting: 600 mg/kg per os daily, day −2 to day 7.

Turning to `CC(C)C[C@H](N[C@@H](Cc1cncn1Cc1cc(Cl)cc(Cl)c1)C(=O)O)C(=O)O` [ORE1001, (S,S)-2-[1-carboxy-2-[3-(3,5-dichlorobenzyl)-3H-imidazol-4-yl]-ethylamino]-4-methylpentanoic acid], in series [1], the “LPS-induced NF-κB signaling in pancreas and uterus, or any other organ analyzed” value is “no statistically significant decrease”; the “reduction of LPS-induced NF-κB-dependent transcription in stomachs” value is “about 37 fold”. The “inhibition of basal in vivo levels of NF-κB-dependent transcription in abdominal ROI” value in series [2] (300 mg/kg subcutaneous, p<0.01) is on record as “over 40%”. In addition, the “inhibition of basal in vivo levels of NF-κB-dependent transcription in abdominal ROI” value in series [2] (both lower doses, subcutaneous) is reported as “lesser but still significant extents”. In addition, in series [3], the “basal in vivo levels of reporter luciferase expression” value is recorded as “no significant effect”. The “inhibition of TNFα-induced activation of NF-κB-dependent transcription” value in series [4] (8 nM, TNFα 20 ng/ml, 6 hours, HeLa) is “over 80%”. Besides, the “maximal inhibition of TNFα-induced activation of NF-κB-dependent transcription” value in series [4] (0.2 μM, TNFα 20 ng/ml, 6 hours, HeLa) was “over 95%”. Moreover, in series [4] (all tested concentrations (0.008-5.0 μM)), the “TNFα-induced activation of NF-κB-dependent transcription” value was “significantly inhibited”. Besides, in series [5] (setting [7]), the “edema score (histopathology)” value was “statistically non-significant trend for reduction”; the “necrosis score (histopathology)” value was “statistically non-significant trend for reduction”; the “sum score (histopathology)” value is reported as “statistically non-significant trend for reduction”; the “proctitis severity (endoscopy, day 8)” value was “minor but statistically non-significant reduction”. Besides, in series [5] (setting [8]), the “inflammation score (histopathology)” value is listed as “statistically significant reductions”; the “necrosis score (histopathology)” value is listed as “statistically significant reductions”; the “sum of inflammation, edema and necrosis scores” value is on record as “statistically significant reductions”; the “proctitis severity (endoscopy, day 8)” value was “substantial reduction”. Further, in series [5] (among the treatments), the body weight change entry is “No major differences”. For the same compound, the “LPS-induced NF-κB signaling response, abdominal region” value in series [6] (FIG. 4, 30, 100, 300 mg/kg subcutaneous 1 hour before LPS i.v.) was “significantly reduced”. The “LPS-induced NF-κB signaling, abdominal region” value in series [6] (FIG. 5, lower dose range 3-100 mg/kg, at 30 and 100 mg/kg) is given as “significantly reduced”.
